{
  "source": "patent US6936628B2",
  "about": "“Oral administration of epothilones” (Bristol-Myers Squibb Company, priority 2002, dated 2005)",
  "key": {"[1]": {"test": "Liver S9 incubation, human", "details": "human liver S9, 20 μM"}, "[2]": {"test": "Single dose IV toxicokinetics in rats", "assay_type": "in vivo", "details": "both sexes, rat, plasma, IV 1, 5 and 7 mg/kg, across doses and sex", "experimental": "The single dose IV toxicokinetics of Compound A in rats were evaluated as a part of a toxicology study. Compound A, prepared in 50 mM citrate buffer (pH 5), was given intravenously (over approximately 1-2 min period) at doses of 1, 5, and 7 mg/kg to 3 rats/gender/dose. Blood samples were collected at 3, 15, and 30 minutes, and at 1, 3, 6, 12, and 24 h after dosing. Plasma concentrations of Compound A were determined using a validated LC/MS/MS assay with a standard curve range of 2-500 ng/mL. […] Systemic exposures were reasonably similar between male and female rats. […] Furthermore, there appeared to be no differences in the toxicokinetics of Compound A between male and female rats."}, "[3]": {"test_system": "HCT116/VM46 cells", "test": "In vitro cytotoxicity assay (MTS), HCT116/VM46", "assay_type": "cell-based, human", "details": "Homo sapiens, HCT-116/VM46; HCT116/VM46 (MDR colon line), 72-hour incubation"}, "[4]": {"test": "Stability in dog EDTA plasma and whole blood", "assay_type": "in vitro ADME", "experimental": "Plasma samples from exploratory pharmacokinetic studies were analyzed for Compound A concentrations using an LC/MS/MS assay with a standard curve range of 3.9 to 2000 ng/mL. In pharmacodynamic studies, Compound A concentrations were determined using an LC/MS/MS assay with a standard curve range of 10-40000 nM (5.23-20920 ng/mL) in mouse plasma. For toxicology studies, validated LC/MS/MS assays were used to determine the concentrations of Compound A in rat and dog plasma. Analytical data management for the validated assays was carried out using Watson®. The standard curve range for the validated assay in both matrices was 2 to 500 ng/mL of Compound A. The coefficient of variation for the inter- and intra-assay precision in rat and dog plasma was within 9% and the accuracy was greater than 92%. […] Compound A was stable for at least 4 months at !20EC and through at least 3 freeze-thaw cycles in rat and dog EDTA plasma. In addition, Compound A was stable in fresh rat and dog EDTA whole blood for at least 1 h at 4EC."}, "[5]": {"target": "T1, CYP1A2 (Homo sapiens, UniProt P05177)", "T1 sequence (P05177 1-516)": "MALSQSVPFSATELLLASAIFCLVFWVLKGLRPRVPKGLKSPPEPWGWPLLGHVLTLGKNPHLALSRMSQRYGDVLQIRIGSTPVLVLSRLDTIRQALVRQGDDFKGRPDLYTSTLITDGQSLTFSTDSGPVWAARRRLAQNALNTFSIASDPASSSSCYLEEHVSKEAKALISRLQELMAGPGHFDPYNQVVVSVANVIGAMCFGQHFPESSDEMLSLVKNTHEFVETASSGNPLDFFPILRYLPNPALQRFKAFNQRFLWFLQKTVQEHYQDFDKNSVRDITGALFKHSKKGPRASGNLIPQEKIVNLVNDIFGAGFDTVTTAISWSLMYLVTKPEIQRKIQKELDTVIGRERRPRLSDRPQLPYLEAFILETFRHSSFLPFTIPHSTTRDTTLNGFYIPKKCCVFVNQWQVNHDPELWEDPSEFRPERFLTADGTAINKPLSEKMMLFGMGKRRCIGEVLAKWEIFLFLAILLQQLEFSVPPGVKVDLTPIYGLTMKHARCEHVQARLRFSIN", "test": "Inhibition of human CYP enzymes, CYP1A2"}, "[6]": {"test": "Liver S9 incubation, rat", "details": "rat liver S9, 20 μM"}, "[7]": {"test": "in vivo", "details": "male, Sprague-Dawley, rat, plasma, other: intraarterial (IA), 2 mg/kg", "method": "In another pharmacokinetic study, fasted male Sprague-Dawley rats, assigned to two IA groups (2 mg/kg) and one oral (8 mg/kg) group (n=3/group), were administered a single dose of Compound A. Compound A was prepared for IA administration in two separate vehicles: vehicle 1, cremophor:ethanol:water (10:10:80), and vehicle 2, ethanol:phosphate buffer, 0.05 M, pH 7.4 (6:94). The vehicle for the oral administration was ethanol:phosphate buffer, 0.3 M, pH 8 (18:82). Samples were collected at 10, 15, 30, and 45 min, and at 1, 2, 4, 6, 8, 10, 24, and 48 hours after dosing."}, "[8]": {"test_system": "human ovarian carcinoma xenograft A2780", "test": "Antitumor activity by parenteral administration to rats, A2780 xenograft", "assay_type": "in vivo, nude rats", "experimental": "The required number of animals needed to detect a meaningful response were pooled at the start of the experiment and each was given a subcutaneous implant of a tumor fragment (≈50 mg) with a 13-gauge trocar. For treatment of early-stage tumors, the animals were again pooled before distribution to the various treatment and control groups. For treatment of animals with advanced-stage disease, tumors were allowed to grow to the pre-determined size window (tumors outside the range were excluded) and animals were evenly distributed to various treatment and control groups. Treatment of each animal was based on individual body weight. Treated animals were checked daily for treatment related toxicity/mortality. Each group of animals was weighed before the initiation of treatment (Wt1) and then again following the last treatment dose (Wt2). The difference in body weight (Wt2−Wt1) provides a measure of treatment-related toxicity.\nTumor response was determined by measurement of tumors with a caliper twice a week, until the tumors reach a predetermined “target” size of 1 gm. Tumor weights (mg) were estimated from the formula: Tumor weight=(length×width^2)÷2\nAntitumor activity was evaluated at the maximum tolerated dose (MTD) which is defined as the dose level immediately […] which excessive toxicity (i.e. more than one death) occurred. The MTD was frequently equivalent to OD. When death occurred, the day of death was recorded. Treated mice dying prior to having their tumors reach target size were considered to have died from drug toxicity. No control mice died bearing tumors less than target size. Treatment groups with more than one death caused by drug toxicity were considered to have had excessively toxic treatments and their data were not included in the evaluation of a compound's antitumor efficacy.\nTumor response end-point was expressed in terms of tumor growth delay (T−C value), defined as the difference in time (days) required for the treated tumors (T) to reach a predetermined target size compared to those of the control group (C).\nTo estimate tumor cell kill, the tumor volume doubling time was first calculated with the formula: TVDT=Median time (days) for control tumors to reach target size−Median time (days) for control tumors to reach half the target size and Log cell kill=T−C÷(3.32×TVDT)\nCompound A was evaluated versus the human ovarian carcinoma xenograft A2780 grown in nude rats. […] In comparison, Compound B produced 3.3 LCK at its MTD (2.4 mg/kg/inj, IV, every 8 days×2)."}, "[9]": {"test": "Plasma apparent steady-state concentration after 10-h IV infusion"}, "[10]": {"test_system": "panel of tumor cell lines", "test": "In vitro cytotoxicity assay (MTS), panel of tumor cell lines", "assay_type": "cell-based", "details": "Homo sapiens; 7 of the 8 cell lines tested, 72-hour incubation"}, "[11]": {"test": "Stability of aqueous solution (time for 5% drug loss, t95)", "assay_type": "physicochemical", "details": "37° C."}},
  "note": "Values joined by “and” are separate entries in the source; they are usually repeats but may differ in a detail not shown here. Equal entries are not always repeated.",
  "data": [
    {"smiles": "C/C(=C\\c1csc(CN)n1)[C@@H]1C[C@@H]2O[C@]2(C)CCC[C@H](C)[C@H](O)[C@@H](C)C(=O)C(C)(C)[C@@H](O)CC(=O)O1", "note": "(relative stereo) [Compound A, [1S-[1R*,3R*(E),7R*,10S*,11R*,12R*,16S*]]-3-[2-[2-(aminomethyl)-4-thiazolyl]-1-methylethenyl]-7,11-dihydroxy-8,8,10,12,16-pentamethyl-4,17-dioxabicyclo[14.1.0]heptadecane-5,9-dione]", "values": [
      {"measurement": "rate of oxidative metabolism", "setting": "[1]", "result": 0.06},
      {"measurement": "AUC", "setting": "[2]", "result": "0.159 to 1.94", "unit": "µg·h/mL"},
      {"measurement": "Cmax", "setting": "[2]", "result": "0.183 to 3.91", "unit": "µg/mL"},
      {"measurement": "IC50", "setting": "[3]", "result": 0.0119, "unit": "µM"},
      {"measurement": "stable through freeze-thaw cycles", "setting": "[4]; dog EDTA plasma", "result": "at least 3 freeze-thaw cycles"},
      {"measurement": "stable in plasma prior to processing", "setting": "[4]; dog EDTA plasma, 4EC", "result": "at least 4 h"},
      {"measurement": "stable in frozen plasma", "setting": "[4]; dog EDTA plasma, !20EC", "result": "at least 4 months"},
      {"measurement": "stable in fresh whole blood", "setting": "[4]; dog EDTA whole blood, 4EC", "result": "at least 1 h"},
      {"measurement": "stable in an autosampler after processing", "setting": "[4]; dog plasma samples, 4EC", "result": "at least 5 days"},
      {"measurement": "IC50", "setting": "[5]", "result": "> 70", "unit": "µM"},
      {"measurement": "rate of oxidative metabolism", "setting": "[6]", "result": 0.04},
      {"measurement": "AUC", "setting": "[7]", "result": 2.89, "unit": "µg·h/mL"},
      {"measurement": "AUC", "setting": "[7]; pH 7.4", "result": 0.717, "unit": "µg·h/mL"},
      {"measurement": "LCK", "setting": "[8]; A2780 in nude rats, IV, every 8 days×2, at MTD", "result": 0.7},
      {"measurement": "MTD", "setting": "[8]; nude rats bearing A2780, IV, every 8 days×2", "result": 3, "unit": "mg/kg/inj"},
      {"measurement": "apparent steady-state concentrations", "setting": "[9]; doses of 2 and 4 mg/kg, 10-h IV infusion, mouse plasma", "result": "18-31 ng/mL and 35-60 nM"},
      {"measurement": "MEC", "setting": "[9]; estimated from plasma Css, 10-hr IV infusion, Pat-7 model", "result": "35 to 60", "unit": "nM"},
      {"measurement": "IC50", "setting": "[10]", "result": "0.0009 to 0.0035", "unit": "µM"},
      {"measurement": "time for 5% drug loss (t95)", "setting": "[11]; pH 2.5", "result": "< 0.2", "unit": "h"},
      {"measurement": "time for 5% drug loss (t95)", "setting": "[11]; pH 7", "result": "approximately 14 h"}
    ]}
  ]
}
